Reference: patent US5212158A, “Derivatives of L-proline, their preparation and their biological uses” (Inorgan SA Recherche & Developpement Pharmaceutiques, CAS, priority 1987, dated 1993)
Residues, ends and D or L forms follow the SMILES beside them. *: point of attachment. PhAc = O=C(Cc1ccccc1)*; Bz = O=C(c1ccccc1)*

Assays:
mouse = experiment: Test of passive avoidance: amnesia induced by scopolamine; assay type: in vivo; settings: for activity in the scopolamine amnesia test: at 2, 8 and 32 mg/kg; for activity in the scopolamine amnesia test / dose at which activity is significant / active dose, scopolamine amnesia test: oral administration; for dose with significant/antagonistic effect on scopolamine amnesia: i.p. route 60 minutes before Assay 1
Description: The procedure described by Glick and Zimmerberg in Behavioural Biology, 1972, 7: 245-254 and by Lenegre et al in Pharmacol. Biochem. Behav., 29 (3) 1988 were used.
The mouse is introduced into the illuminated compartment of a two-compartment box. When it crosses into the darker component its paws receive electric shocks of 0.3 mA until it returns into the illuminated compartment (Assay 1).
When the mouse is returned to the box 24 hours later (Assay 2), it avoids going into the darker component. An i.p. injection of scopolamine (1 mg.kg^-1) 30 minutes before Assay 1 reduces the memory of this experience as is reflected in the delay of the reaction of the mouse before it crosses to the darker compartment in Assay 2. […]
Piracetam was used as reference substance.

TSH = experiment: Effect on adenohypophyseal hormone secretions: TSH radioimmunoassay; assay type: in vivo, rat; settings: male rats, plasma 30 min later; for activity on TSH levels: 32 mg/kg IP
Description: (§1) Male rats received 2 mg/kg, 8 mg/kg, or 32 mg/kg IP of product of example 1 in arabic gum (2.5%) and 32 mg/kg IP of products of examples 2 and 3. Rats were killed 30 min. later by decapitation and plasma samples were aliquoted and kept frozen (-20° C.) until assays. Before the experiments, the rats have been accustomed to handling to avoid any stress effect.
(§2) Hormones were assayed using radioimmunoassays for prolactin, GH and TSH.

prolactin = experiment: Effect on adenohypophyseal hormone secretions: prolactin radioimmunoassay; assay type: in vivo, rat; settings: male rats, plasma 30 min later; for activity on prolactin levels: 32 mg/kg IP
Description: as §1, §2

GH = experiment: Effect on adenohypophyseal hormone secretions: GH radioimmunoassay; assay type: in vivo, rat; settings: male rats; 32 mg/kg IP; plasma 30 min later
Description: as §1, §2

mice of the NMRI strain [1] = experiment: Test of passive avoidance: amnesia induced by diazepam; assay type: in vivo, mouse; settings: for dose with statistically significant effect / dose reducing diazepam amnesia: 60 minutes before Assay 1, piracetam by the i.p. route
Description: A volume of 0.25 ml/20 g of body weight of the compound of Example 1 (suspension in 5% gum arabic) is administered to mice of the NMRI strain or, in the case of the reference substance, an aqueous solution of piracetam or of diazepam (5% suspension in gum arabic) is administered. The control animals receive only injections of the vehicle (suspension of gum arabic). The test is carried out at indicated above for the induction of amnesia by the injection of scopolamine, with exception that this latter is replaced by diazepam. An injection of diazepam by the i.p. route 30 minutes before Assay 1 at a dose of 1 mg.kg^-1 reduces memory in a significant manner as is shown by the diminution of the reaction time in the mouse for crossing to the dark compartment during Assay 2.

NMRI mice = experiment: Potentiation of the effects of L-dopa; assay type: in vivo, mouse; settings: oral 8 and 32 mg/kg one hour before L-dopa 150 mg/kg i.p.
Description: A compound of the invention is adiministered orally at doses of 2, 8 and 32 mg/kg to NMRI mice one hour before the intraperitoneal administration of 150 mg/kg of L-dopa.

mice of the NMRI strain [2] = experiment: Antagonism of sleep induced by barbiturates; assay type: in vivo, mouse; settings: oral 2 and 8 mg/kg one hour before barbital 50 mg/kg i.p.; compared with a control group
Description: A compound of the invention is administered orally at doses of 2, 8 and 32 mg.kg^-1 to mice of the NMRI strain one hour before the intraperitoneal administration of barbital at a dose of 50 mg/kg.

[3] = test system: male mice of the NMRI strain; experiment: Irwin test; assay type: in vivo, mouse
Description: A volume of 0.25 ml/20 g of body weight of a suspension of the compound of the invention in 5% gum arabic is administered to male mice of the NMRI strain by the i.p. route. The control animals received only the 5% suspension of gum arabic. Changes in behaviour, neurotoxicity symptoms, the diameter of the pupil and the rectal temperature are recorded in the standardized observation schedule according to Irwin in Psychopharmacologia, 1968, 13, 222-257. These observations were made at 15, 30, 60, 120 and 180 minutes after injection and 24 hours later. The compounds of the invention were studied at doses of 1024, 512 and 256 mg.kg^-1.

[4] = Solubility of the product obtained; assay type: physicochemical
From the text: The product obtained was insoluble in water and is soluble to the extent of at least 1% to 5% in organic solvents such as methanol. chloroform, ethyl acetate and dimethylformamide.

[5] = i.p. 1024 mg.kg^-1, between 1 and 2 hours after administration

| Molecule | activity in the scopolamine amnesia test (mouse) | dose at which activity is significant / active dose, scopolamine amnesia test (mouse) | activity on TSH levels (TSH) | activity on prolactin levels (prolactin) | activity on GH levels (GH) | dose with significant/antagonistic effect on scopolamine amnesia (mouse) | dose with statistically significant effect / dose reducing diazepam amnesia (mice of the NMRI strain [1]) | further results |
| --- | --- | --- | --- | --- | --- | --- | --- | --- |
| 4-fluorocinnamoylglycyl-L-phenylalanine-L-prolinamide [Example 2] | active | 2 mg/kg | no activity at all | no activity at all | no activity at all |  |  |  |
| NC(=O)[C@@H]1CCCN1C(=O)[C@H](Cc1ccccc1)NC(=O)CNC(=O)C=Cc1ccccc1 [Example 1, cinnamoyl-glycyl-L-phenylalanyl-L-prolinamide] | active | 2 mg/kg |  |  |  | 1 mg/kg | 4 mg/kg | antagonism of the effects of scopolamine (Assay 2) (mouse; i.p. 60 minutes before Assay 1, doses of 1, 4 and 16 mg/kg): antagonizes the effects of scopolamine; TSH levels (TSH; 8 mg/kg IP): very slightly increased; antagonism of the effect of diazepam (Assay 2) (mice of the NMRI strain [1]; doses of 0.25, l and 4 mg.kg^-1, 60 minutes before Assay 1, diazepam 1 mg.kg^-1 i.p.): antagonizes the effect of diazepam in a dose-dependent manner; behavioural changes with L-dopa (NMRI mice): induces behavioural changes in the treated animals such as rapid running and jumping; prolactin levels (prolactin; 2, 8 or 32 mg/kg IP, dose dependent): slightly increased; duration of sleep (mice of the NMRI strain [2]): significantly diminishes the duration of sleep; Irwin observations versus control animals ([3]; i.p. 256 mg.kg^-1): no difference from the control animals; Irwin observations (hypothermia) ([3]; i.p. 512 mg.kg^-1): only a slight hypothermia; hypothermia ([3]; i.p. 1024 mg.kg^-1): hypothermia (2 mice/3); ptosis ([3]; i.p. 1024 mg.kg^-1): moderate ptosis (3 mice/3); excitation [3, 5]: excitation (1 mouse/3); sedation [3, 5]: slight sedation (1 mouse/3); solubility in water [4]: insoluble |
| NC(=O)[C@@H]1CCCN1C(=O)[C@H](Cc1ccccc1)NC(=O)CNC(=O)C=Cc1ccc2c(c1)OCO2 [Example 3, 3,4-methylenedioxycinnamoyl-glycyl-L-phenylalanyl-L-prolinamide] | active | 2 mg/kg | no activity at all | no activity at all | no activity at all |  |  |  |
| NC(=O)[C@@H]1CCCN1C(=O)[C@H](Cc1ccccc1)NC(=O)CNC(=O)c1ccccc1 [Example 6, benzoyl-glycyl-L-phenylalanyl-L-prolinamide] (Bz-Gly-Phe-Pro-NH2) | active | 2 mg/kg |  |  |  |  |  |  |
| NC(=O)[C@@H]1CCCN1C(=O)[C@H](Cc1ccccc1)NC(=O)CNC(=O)Cc1ccccc1 [Example 7, phenylacetyl-glycyl-L-phenylalanyl-L-prolinamide] (PhAc-Gly-Phe-Pro-NH2) | active | 2 mg/kg |  |  |  |  |  |  |
| NC(=O)CN1CCCC1=O [piracetam, reference compound] |  | 2048 mg/kg |  |  |  | 512 mg/kg | 512 mg/kg | latent periods for crossing into the dark compartment or for escaping from it during Assay 1 (mouse; i.p. or oral route 60 mn before the assay, Assay 1): does not produce any effect |
